Converted amounts (≈) assume the structure as drawn. Where two headings read alike, the source gives them in different places. Residues, ends and D or L forms follow the SMILES beside them.
How the values were obtained:
[1] = tested on: E. faecium; assay: MIC, broth microdilution in MHB; assay type: cell-based, E. faecium #1-1; settings: first concentration without visible growth, mode of at least three independent experiments
Description: (§1) The following bacterial pathogens were used in this study: S. enterica subsp. enterica serovar Typhimurium ATCC 14028, E. coli O157:H7 [83], the clinical isolates S. aureus SAP0017 [84] and USA300 LAC [85], E. faecium #1-1 [85], A. baumannii Ab5075 [85] and E. cloacae 218R1 [85], as well as P. aeruginosa PAO1 [34], P. vulgaris HSC7200-T2 (Hancock Lab strain collection) and K. pneumoniae KPLN49 [85].
(§2) Overnight cultures were grown in LB at 37 °C with shaking at 250 rpm, except for E. faecium, which was grown in BHI medium.
(§3) The antimicrobial activity of the crocCATHs was evaluated with the broth microdilution method as described previously. MIC was defined as the first peptide or antibiotic concentration without visible bacterial growth. Reported values are the statistical mode of at least three independent experiments.

[2] = tested on: E. coli; assay type: cell-based, E. coli O157:H7; settings: microdilution in MHB, first concentration without visible growth, mode of at least three independent experiments
Description: as §1, §2, §3

[3] = tested on: P. vulgaris; assay type: cell-based, P. vulgaris HSC7200-T2; settings: microdilution in MHB, first concentration without visible growth, mode of at least three independent experiments
Description: as §1, §2, §3

[4] = tested on: S. Typhimurium; assay type: cell-based, S. enterica subsp. enterica serovar Typhimurium ATCC 14028
Description: as §1, §2, §3

[5] = tested on: P. aeruginosa biofilm; assay type: cell-based, P. aeruginosa PAO1
Description: (§4) Bacterial biofilm inhibition assays were performed using a microtiter assay as described by Haney et al.. For E. cloacae, E. coli, P. aeruginosa and S. Typhimurium, assays were performed using BM2 minimal medium (62 mM potassium phosphate, 7 mM ammonium sulfate, 0.5 mM magnesium sulfate, pH 7.0) supplemented with 0.4% glucose (w/v). Antibiofilm activity against A. baumannii and S. aureus SAP0017 was evaluated in 10% TSB (v/v) media supplemented with 0.1% glucose (w/v), whereas 10% THB (v/v) medium was employed for P. vulgaris.
(§5) Data from at least three independent experiments were analyzed as the percentage of biofilm mass compared to the untreated control. After crystal violet staining, MBIC95 was then calculated for each peptide, defined as the minimal peptide concentration capable of inhibiting mean biofilm growth by at least 95% compared to the untreated control.

[6] = tested on: E. cloacae; assay type: cell-based, E. cloacae 218R1
Description: as §1, §2, §3

[7] = tested on: A. baumannii; assay: MIC, broth microdilution in MHB; assay type: cell-based, A. baumannii Ab5075; settings: first concentration without visible growth, mode of at least three independent experiments
Description: as §1, §2, §3

[8] = tested on: S. aureus; assay: MIC, broth microdilution in MHB; assay type: cell-based; settings: first concentration without visible growth, mode of at least three independent experiments
Description: as §1, §2, §3

[9] = tested on: P. aeruginosa; assay: MIC, broth microdilution in MHB; assay type: cell-based, P. aeruginosa PAO1; settings: first concentration without visible growth, mode of at least three independent experiments
Description: as §1, §2, §3

[10] = tested on: K. pneumoniae; assay: MIC, broth microdilution in MHB; assay type: cell-based, K. pneumoniae KPLN49; settings: first concentration without visible growth, mode of at least three independent experiments
Description: as §1, §2, §3

[11] = tested on: E. coli biofilm; assay type: cell-based, E. coli O157:H7; settings: BM2 minimal medium + 0.4% glucose, crystal violet, at least 95% inhibition of mean biofilm growth, at least three independent experiments
Description: as §4, §5

[12] = tested on: human bronchial epithelial (HBE) cells; assay: LDH release cytotoxicity assay; assay type: cell-based; settings: HBE cells (16HBE14o-); at the highest concentrations tested (5 and 10 μM); relative to Triton X-100 control
Description: Immortalized human bronchial epithelial (HBE) cells (16HBE14o-) were used for in vitro cytotoxicity experiments as described elsewhere.
(§6) Peptide-induced cytotoxicity was assessed by measuring the extracellular activity of the LDH enzyme using the Cytotoxicity Detection Kit (MilliporeSigma, Burlington, MA, USA) as previously described. The percentage of LDH release relative to the untreated (negative) and Triton X-100 (positive, 100% cytotoxicity) control was assessed for at least three biological replicates and recorded as percent cytotoxicity.

[13] = subcutaneous, 15 mg/kg, peptide alone, uninfected animals
Excerpt: The antibacterial capacities of As-CATH8 and Gg-CATH5 were further evaluated in the murine skin infection/abscess model. Mice were inoculated with clinical isolates of S. aureus and A. baumannii, two frequent causes of human skin infections. […] Therefore, the peptides were considered non-toxic at the doses used.

[14] = tested on: peripheral blood mononuclear cells (PBMCs); assay: LDH release cytotoxicity assay; assay type: cell-based; settings: human PBMCs; at the highest concentrations tested (5 and 10 μM); relative to Triton X-100 control
Description: Human PBMCs were isolated from human blood following the ethics protocols of the University of British Columbia, Canada. Consent was obtained from healthy volunteers before blood donation. Isolation and treatment of unstimulated PBMC was performed as previously described.
as §6

CC(C)C[C@H](NC(=O)[C@H](C)NC(=O)[C@@H](NC(=O)[C@H](CC(N)=O)NC(=O)[C@H](CCCNC(=N)N)NC(=O)CNC(=O)[C@@H](NC(=O)[C@H](CCCCN)NC(=O)[C@H](CCCNC(=N)N)NC(=O)[C@H](Cc1c[nH]c2ccccc12)NC(=O)[C@H](CC(N)=O)NC(=O)[C@@H](NC(=O)[C@H](CCCNC(=N)N)NC(=O)[C@@H](N)CCCCN)C(C)C)C(C)C)[C@@H](C)O)C(=O)NCC(=O)N[C@@H](C)C(=O)N[C@@H](CO)C(=O)N[C@@H](Cc1ccc(O)cc1)C(=O)N[C@H](C(=O)N[C@@H](CC(C)C)C(=O)N[C@@H](CO)C(=O)N[C@@H](Cc1ccccc1)C(=O)N[C@@H](CC(C)C)C(=O)NCC(=O)O)C(C)C [As-CATH7] (H-KRVNWRKVGRNTALGASYVLSFLG-OH)
MIC [1]: >64 µM
MIC [2]: 2 µM (≈ 5.39 µg/mL)
MIC [3]: >64 µM
MIC [4]: 2 µM
MBIC95 [5]: > 172 µg/mL
MIC [6]: 0.5 µM (≈ 1.35 µg/mL)
MIC [7]: 0.25 µM (≈ 0.673 µg/mL)
MIC [8]: 4 µM (≈ 10.8 µg/mL)
MIC [9]: 4 µM (≈ 10.8 µg/mL)
MIC [10]: 1 µM (≈ 2.69 µg/mL)
MBIC95 [11]: 32 µM

CC[C@H](C)[C@H](NC(=O)[C@H](Cc1ccc(O)cc1)NC(=O)[C@@H]1CCCN1C(=O)[C@H](CC(C)C)NC(=O)[C@H](CC(C)C)NC(=O)[C@H](CCCCN)NC(=O)[C@H](CC(C)C)NC(=O)[C@H](C)NC(=O)[C@@H](NC(=O)[C@H](CCCNC(=N)N)NC(=O)CNC(=O)[C@@H](NC(=O)[C@H](CCCCN)NC(=O)[C@H](C)NC(=O)[C@H](Cc1c[nH]c2ccccc12)NC(=O)[C@H](CC(N)=O)NC(=O)[C@@H](NC(=O)[C@H](CCCNC(=N)N)NC(=O)[C@@H](N)CCCCN)C(C)C)C(C)C)[C@@H](C)O)C(=O)N[C@@H](Cc1ccccc1)C(=O)NCC(=O)O [As-CATH8] (H-KRVNWAKVGRTALKLLPYIFG-OH)
MIC [1]: >64 µM
MIC [2]: 1 µM (≈ 2.43 µg/mL)
MIC [3]: 4 µM (≈ 9.72 µg/mL)
MIC [4]: 1 µM
MIC [6]: 0.5 µM (≈ 1.22 µg/mL)
MIC [7]: 0.25 µM (≈ 0.608 µg/mL)
MIC [8]: 0.5 µM (≈ 1.22 µg/mL)
MIC [9]: 1 µM (≈ 2.43 µg/mL)
MIC [10]: 0.5 µM (≈ 1.22 µg/mL)
MBIC95 [11]: 1 µM

CC[C@H](C)[C@H](NC(=O)[C@H](C)NC(=O)CNC(=O)[C@H](CC(N)=O)NC(=O)[C@H](CC(C)C)NC(=O)[C@@H](NC(=O)[C@H](CCCCN)NC(=O)[C@H](CCCCN)NC(=O)[C@H](Cc1c[nH]c2ccccc12)NC(=O)[C@H](Cc1c[nH]c2ccccc12)NC(=O)[C@H](CCCCN)NC(=O)[C@H](CCCNC(=N)N)NC(=O)[C@H](CCCNC(=N)N)NC(=O)[C@@H](N)[C@@H](C)O)C(C)C)C(=O)N[C@@H](CCCCN)C(=O)N[C@H](C(=O)N[C@@H](C)C(=O)N1CCC[C@H]1C(=O)N[C@@H](Cc1ccc(O)cc1)C(=O)N[C@H](C(=O)N[C@@H](CC(C)C)C(=O)N[C@@H](CC(=O)O)C(=O)O)[C@@H](C)CC)[C@@H](C)CC [Gg-CATH5] (H-TRRKWWKKVLNGAIKIAPYILD-OH)
MIC [1]: >64 µM
MIC [2]: 4 µM (≈ 10.7 µg/mL)
MIC [3]: 8 µM (≈ 21.4 µg/mL)
MIC [7]: 0.5 µM (≈ 1.34 µg/mL)
MIC [8]: 1 µM (≈ 2.67 µg/mL)
MIC [9]: 1 µM (≈ 2.67 µg/mL)
MIC [10]: 0.5 µM (≈ 1.34 µg/mL)
MBIC95 [11]: 32 µM

CSCC[C@H](NC(=O)[C@@H](NC(=O)[C@H](Cc1ccc(O)cc1)NC(=O)[C@H](CO)NC(=O)[C@H](C)NC(=O)CNC(=O)[C@H](CC(C)C)NC(=O)CNC(=O)[C@@H](NC(=O)[C@H](CCCCN)NC(=O)[C@H](CCCNC(=N)N)NC(=O)[C@H](Cc1c[nH]c2ccccc12)NC(=O)[C@H](CC(N)=O)NC(=O)[C@@H](NC(=O)[C@H](CCCNC(=N)N)NC(=O)[C@@H](N)CCCCN)C(C)C)C(C)C)C(C)C)C(=O)N[C@@H](CO)C(=O)N[C@@H](Cc1c[nH]c2ccccc12)C(=O)N[C@@H](CC(C)C)C(=O)NCC(=O)O [Gg-CATH7] (H-KRVNWRKVGLGASYVMSWLG-OH)
MIC [4]: 4 µM
MBIC95 [5]: > 148 µg/mL
MIC [6]: 2 µM (≈ 4.62 µg/mL)

CC[C@H](C)[C@H](NC(=O)[C@H](CCCCN)NC(=O)[C@H](CCC(=O)O)NC(=O)[C@H](CCCCN)NC(=O)[C@H](CO)NC(=O)[C@H](CCCCN)NC(=O)[C@H](CCCNC(=N)N)NC(=O)[C@H](Cc1ccccc1)NC(=O)[C@H](Cc1ccccc1)NC(=O)[C@H](CC(=O)O)NC(=O)CNC(=O)[C@H](CC(C)C)NC(=O)[C@@H](N)CC(C)C)C(=O)NCC(=O)N[C@@H](CCCCN)C(=O)N[C@@H](CCC(=O)O)C(=O)N[C@@H](Cc1ccccc1)C(=O)N[C@@H](CCCCN)C(=O)N[C@@H](CCCNC(=N)N)C(=O)N[C@H](C(=O)N[C@H](C(=O)N[C@@H](CCC(N)=O)C(=O)N[C@@H](CCCNC(=N)N)C(=O)N[C@H](C(=O)N[C@@H](CCCCN)C(=O)N[C@@H](CC(=O)O)C(=O)N[C@@H](Cc1ccccc1)C(=O)N[C@@H](CC(C)C)C(=O)N[C@@H](CCCNC(=N)N)C(=O)N[C@@H](CC(N)=O)C(=O)N[C@@H](CC(C)C)C(=O)N[C@H](C(=O)N1CCC[C@H]1C(=O)N[C@@H](CCCNC(=N)N)C(=O)N[C@H](C(=O)N[C@@H](CCC(=O)O)C(=O)N[C@@H](CO)C(=O)O)[C@@H](C)O)C(C)C)[C@@H](C)CC)C(C)C)[C@@H](C)CC [LL-37]
MIC ([4]; S. Typhimurium, microdilution in MHB, value in brackets of Table S4): 72 µg/mL
Cytotoxicity (LDH release) [12]: moderately cytotoxic
Tissue damage or peptide precipitation at the site of injection [13]: no evidence of tissue damage or peptide precipitation
Cytotoxicity (LDH release) [14]: moderately cytotoxic

VRLIVAVRIWRR-NH2 [IDR-1018, immunomodulatory peptide used as control]
Cytotoxicity (LDH release) [12]: low cytotoxicity
Cytotoxicity (LDH release) [14]: low cytotoxicity
